# Experimental data from patent US20200345021A1, “METHOD AND SYSTEM FOR ENHANCING THE EFFICACY USING IONIZED/A[…] PEROXIDE IN REDUCING MICROBIAL POPULATIONS, METHOD OF USE THEREOF” (priority 2019, published 2020).
# Values joined by “and” are separate entries in the source; they are usually repeats but may differ in a detail not shown here. Equal entries are not always repeated. Where two headings read alike, the source gives them in different places. Marks after values point to notes of the source that are not given here.
# How the values were obtained:
# [1] = system: L. innocua; conditions: 45 s treatment + 30 min dwell
# [2] = system: E. coli O157:H7
# [3] = system: S. Typhimurium; conditions: for Populations of S. Typhimurium, treated / Reductions of S. Typhimurium: with cold plasma
# Description: To minimize the risk of possible bacteria becoming airborne during treatments, attenuated and non-pathogenic bacteria were used in the study. Two strains of non-pathogenic S. Typhimurium (ATCC 53647 and 53648) and three strains of L. innocua (ATCC 33090, ATCC 51742 and ATCC BAA680) were obtained from American Type Culture Collection (ATCC) (Manassas, Va., USA). Further studies used E. coli O157:H7 (ATCC 700728), S. Typhimurium (ATCC 53647 and 53648), and L. innocua (ATCC 33090) obtained from American Type Culture Collection (ATCC) (Manassas, Va., USA) and maintained as a part of the culture collection at the USDA Eastern Regional Research Center (Wyndmoor, Pa. USA). The bacteria were made to be resistant to nalidixic acid by successive growth in Trypic Soy Broth (TSB) (Difco, Sparks, Md., USA) with increasing nalidixic acid concentrations. All strains were stored at −80° C. in 1 mL of TSB containing 10% glycerol. Working cultures of S. Typhimurium and L. innocua were maintained in 9 mL TSB (supplemented with 100 μg/mL nalidixic acid for S. Typhimurium) at 4° C. after incubating at 37° C. for […], respectively, and sub-cultured each time.
# Each strain of S. Typhimurium and L. innocua was cultured in 9 mL TSB (supplemented with 100 μg/mL nalidixic acid for S. Typhimurium) and incubated at 37° C. for 40 h and 48 h, respectively, harvested by centrifugation at 4000×g for 10 min at 4° C., and resuspended in 9 mL sterile Buffered Peptone Water (BPW; Difco). The pellets were resuspended in BPW to form cell suspensions with a final concentration of 108˜10^9 CFU/mL. Subsequently, suspended pellets of two strains of Salmonella and three strains of L. innocua were combined to obtain two separate culture cocktails.
# Grape tomatoes, granny smith apples, romaine lettuce and cantaloupes were purchased from local markets (Philadelphia, Pa., USA) and kept at 10° C. prior to use. Fruits and vegetables were removed from 10° C. refrigeration and equilibrated to ambient temperature before being inoculated. Romaine lettuce was divided into upper green leaf and midrib tissues. Six tomatoes, six pieces (2×2 cm) of apple skins, five pieces (3×3 cm) of Romaine lettuce upper leaves, five pieces (3 cm length) of Romaine lettuce midrib area and six pieces (2×2 cm) of cantaloupe rinds with 2×3 mm thickness of flesh were used for each treatment per replicate. Bach piece w as spot inoculated with 10 μL of Salmonella and L. innocua by depositing droplets with a micropipette. The inoculated samples were dried in a bio-hood for 1 h (for tomato surfaces, romaine lettuce, apple skins and cantaloupe rinds) or 2 h (for tomato stem scars) at ambient temperature.
# Produce items were placed onto a sterile test tube rack with the inoculated area facing up and the rack with produce pieces were placed inside of a treatment chamber (12×12×24 inch).
# For tomato surfaces and apple skins, the treatment times (spray times) were set as 5, 8 and 10 s followed by 30 min dwell time. For upper leaves and midrib tissues of Romaine lettuce, the treatment times were 10, 20, 30 and 60 s followed by 30 min dwell time. For cantaloupe rinds, the treatment times were set as 10, 30 and 60 s followed by 30 min dwell time. For tomato stem scars, the treatment procedure included 5.8, 10, 20, 30, 60 s followed by 30 min dwell time, 6 cycles composed of 10 s treatment time followed by 10 min dwell time per cycle, and 3 cycles composed of 20 s treatment time followed by 20 min dwell time per cycle. A fan (E.Z.FAN, FP-108-1, Common Wealth Industrial Corp., Taiwan) was used in the chamber to facilitate the uniform distribution of mist during dwell time.
# After each treatment, the tomato stem scars and surfaces with the inoculated bacteria were removed using a pair of sterile scissors.
# [4] = Description: Specifically, a scanning mobility particle sizer (SMPS Model 3080, TSI inc., Shoreview, Minn., USA) and an aerodynamic particle sizer (APS Model 3321, TSI Inc.) were connected to the treatment chamber through an access port in the back of the treatment chamber to measure droplet sizes ranging from 2.5 to 210 nm, and from 0.5 to 20 μm, respectively.
# [5] = system: S. Typhimurium
# [6] = Granny Smith apple skins, treatment time 5 s + 30 min dwell
# [7] = Romaine lettuce leaves (upper leaf), treatment time 10 s + 30 min dwell
# [8] = Romaine lettuce leaves (upper leaf), treatment time 20 s + 30 min dwell
# [9] = Romaine lettuce leaves (upper leaf), treatment time 60 s + 30 min dwell
# [10] = Romaine lettuce midrib area, treatment time 10 s + 30 min dwell
# [11] = Romaine lettuce midrib area, treatment time 20 s + 30 min dwell
# [12] = Romaine lettuce midrib area, treatment time 60 s + 30 min dwell
# [13] = cantaloupe rinds, treatment time 10 s + 30 min dwell
# [14] = cantaloupe rinds, treatment time 60 s + 30 min dwell
# [15] = grape tomato stem scars, 10s × 6 (6 cycles of 10 s spray time followed by 10 min dwell time)
# [16] = grape tomato stem scars, treatment time 8 s + 30 min dwell
# [17] = grape tomato stem scars, treatment time 10 s + 30 min dwell
# [18] = grape tomato stem scars, treatment time 20 s + 30 min dwell
# [19] = grape tomato stem scars, treatment time 30 s + 30 min dwell
# [20] = grape tomato surfaces, treatment time 5 s + 30 min dwell
# [21] = treatment chamber, immediately after introduction
compound,measurement,setting,value
"OO [H2O2, hydrogen peroxide]",Populations of L. innocua,[1]; cantaloupe,3.5 +/− 0.2b log CFU/piece
same,Reduction of L. innocua,[1]; cantaloupe,3.0 log CFU/piece
same,Populations of L. innocua,[1]; spinach,2.5 +/− 1.9b log CFU/piece
same,Reduction of L. innocua,[1]; surface of spinach leaves,4.0 log CFU/leaf
same,Reduction of L. innocua,"[1]; tomato stem scar area, listed as ionized/aerosolized hydrogen peroxide (H2O2)",1.0-1.3 log CFU/piece and 1.3 log CFU/piece
same,Populations of L. innocua,[1]; tomato stem scar,4.9 +/− 0.4b log CFU/piece
same,Reduction of E. coli populations,[2],1.5 log
same,"Populations of S. Typhimurium, treated",[3]; [6],4.09 ± 0.13^a log CFU/piece
same,Reductions of S. Typhimurium,[3]; [6],1.63 ± 0.35^b log CFU/piece
same,"Populations of S. Typhimurium, treated","[3]; Granny Smith apple skins, treatment time 8 s + 30 min dwell, ND: not detectable (detection limit 0.70 log CFU/piece)",< 0.70 log CFU/piece
same,Reductions of S. Typhimurium,"[3]; Granny Smith apple skins, treatment time 8 s + 30 min dwell, listed as hydrogen peroxide (H2O2) with cold plasma",more than 5 log CFU/piece
same,Reductions of S. Typhimurium,"[3]; Granny Smith apple skins, treatment time 8 s + 30 min dwell, listed as ionized hydrogen peroxide",> 5 log CFU/piece
same,"Populations of S. Typhimurium, treated",[3]; [7],5.45 ± 0.34^a log CFU/piece
same,Reductions of S. Typhimurium,[3]; [7],0.79 ± 0.16^c log CFU/piece
same,"Populations of S. Typhimurium, treated",[3]; [8],3.98 ± 0.37^b log CFU/piece
same,Reductions of S. Typhimurium,[3]; [8],1.98 ± 0.24^b log CFU/piece
same,"Populations of S. Typhimurium, treated","[3]; Romaine lettuce leaves (upper leaf), treatment time 30 s + 30 min dwell",3.54 ± 0.11^b log CFU/piece
same,Reductions of S. Typhimurium,"[3]; Romaine lettuce leaves (upper leaf), treatment time 30 s + 30 min dwell, listed as ionized hydrogen peroxide",2.86 log CFU/piece and 2.86 ± 0.17^a log CFU/piece
same,"Populations of S. Typhimurium, treated",[3]; [9],3.57 ± 0.25^b log CFU/piece
same,Reductions of S. Typhimurium,[3]; [9],2.79 ± 0.20^a log CFU/piece
same,"Populations of S. Typhimurium, treated",[3]; [10],4.81 ± 0.22^a log CFU/piece
same,Reductions of S. Typhimurium,[3]; [10],1.53 ± 0.23^c log CFU/piece
same,"Populations of S. Typhimurium, treated",[3]; [11],4.09 ± 0.25^b log CFU/piece
same,Reductions of S. Typhimurium,[3]; [11],2.04 ± 0.33^b log CFU/piece
same,"Populations of S. Typhimurium, treated","[3]; Romaine lettuce midrib area, treatment time 30 s + 30 min dwell",2.54 ± 0.32^c log CFU/piece
same,Reductions of S. Typhimurium,"[3]; Romaine lettuce midrib area, treatment time 30 s + 30 min dwell, listed as ionized hydrogen peroxide",3.63 log CFU/piece and 3.63 ± 0.21^a log CFU/piece
same,"Populations of S. Typhimurium, treated",[3]; [12],2.94 ± 0.18^c log CFU/piece
same,Reductions of S. Typhimurium,[3]; [12],3.13 ± 0.48^a log CFU/piece
same,"Populations of S. Typhimurium, treated",[3]; [13],4.39 ± 0.32^a log CFU/piece
same,Reductions of S. Typhimurium,[3]; [13],1.50 ± 0.21^b log CFU/piece
same,"Populations of S. Typhimurium, treated","[3]; cantaloupe rinds, treatment time 30 s + 30 min dwell",4.09 ± 0.24^a log CFU/piece
same,Reductions of S. Typhimurium,"[3]; cantaloupe rinds, treatment time 30 s + 30 min dwell, listed as ionized hydrogen peroxide",2.48 log CFU/piece and 2.48 ± 0.68^a log CFU/piece
same,"Populations of S. Typhimurium, treated",[3]; [14],3.23 ± 0.28^b log CFU/piece
same,Reductions of S. Typhimurium,[3]; [14],2.44 ± 0.32^a log CFU/piece
same,"Populations of S. Typhimurium, treated",[3]; [15],3.89 ± 0.39^ab log CFU/piece
same,Reductions of S. Typhimurium,[3]; [15],2.19 ± 0.41^b log CFU/piece
same,"Populations of S. Typhimurium, treated","[3]; grape tomato stem scars, listed as printed 20s × 6 (title: 20s×3, 3 cycles of 20 s spray time with 20 min dwell time)",3.60 ± 0.42^b log CFU/piece
same,Reductions of S. Typhimurium,"[3]; grape tomato stem scars, listed as printed 20s × 6 (title: 20s×3, 3 cycles of 20 s spray time with 20 min dwell time), listed as ionized hydrogen peroxide",2.73 log CFU/piece and 2.73 ± 0.28^a log CFU/piece
same,"Populations of S. Typhimurium, treated","[3]; grape tomato stem scars, treatment time 5 s + 30 min dwell",4.26 ± 0.89^ab log CFU/piece
same,Reductions of S. Typhimurium,"[3]; grape tomato stem scars, treatment time 5 s + 30 min dwell, listed as ionized hydrogen peroxide",1.06 log CFU/piece and 1.06 ± 0.35^d log CFU/piece
same,"Populations of S. Typhimurium, treated",[3]; [16],4.23 ± 0.31^ab log CFU/piece
same,Reductions of S. Typhimurium,[3]; [16],1.22 ± 0.28^d log CFU/piece
same,"Populations of S. Typhimurium, treated",[3]; [17],4.26 ± 0.71^ab log CFU/piece
same,Reductions of S. Typhimurium,[3]; [17],1.20 ± 0.14^d log CFU/piece
same,"Populations of S. Typhimurium, treated",[3]; [18],4.71 ± 0.26^ab log CFU/piece
same,Reductions of S. Typhimurium,[3]; [18],1.51 ± 0.34^cd log CFU/piece
same,"Populations of S. Typhimurium, treated",[3]; [19],4.31 ± 0.20^a log CFU/piece
same,Reductions of S. Typhimurium,[3]; [19],1.85 ± 0.11^bc log CFU/piece
same,"Populations of S. Typhimurium, treated","[3]; grape tomato stem scars, treatment time 60 s + 30 min dwell",3.85 ± 0.66^ab log CFU/piece
same,Reductions of S. Typhimurium,"[3]; grape tomato stem scars, treatment time 60 s + 30 min dwell, listed as ionized hydrogen peroxide",2.16 log CFU/piece and 2.16 ± 0.43^b log CFU/piece
same,"Populations of S. Typhimurium, treated",[3]; [20],4.44 ± 0.25^a log CFU/piece
same,Reductions of S. Typhimurium,[3]; [20],1.84 ± 0.43^b log CFU/piece
same,"Populations of S. Typhimurium, treated","[3]; grape tomato surfaces, treatment time 8 s + 30 min dwell, ND: not detectable (detection limit 0.70 log CFU/piece)",< 0.70 log CFU/piece
same,Reductions of S. Typhimurium,"[3]; grape tomato surfaces, treatment time 8 s + 30 min dwell, listed as hydrogen peroxide (H2O2) with cold plasma",more than 5 log CFU/piece
same,Reductions of S. Typhimurium,"[3]; grape tomato surfaces, treatment time 8 s + 30 min dwell, listed as ionized hydrogen peroxide",> 5 log CFU/piece
same,Reductions of S. Typhimurium,"[3]; grape tomato surfaces, treatment time 10 s + 30 min dwell",5.65 ± 0.21^a log CFU/piece
same,log reduction of Salmonella on other fresh produce items,"[3]; produce other than smooth surfaces of tomatoes and apples, applied for a longer time period",≤ 3.6 log
same,log reductions of Salmonella on rough surfaces,"[3]; rough surfaces (tomato stem scars, cantaloupe rinds), similar treatment times",2.8-3.6 log
same,log reductions of Salmonella on smooth surfaces,"[3]; smooth surfaces (apples, tomatoes), 8-10 s treatment time + 30 min dwell time",greater than 5 log
same,Nanosize droplets remained in the treatment chamber,[4]; after 30 min (end of treatment),about 8%
same,Share of droplets in the range of <5 μm,"[4]; micrometer range, immediately after introduction",About 80%
same,Mean diameter of droplets in the micrometer range,[4]; [21],3.0 μm
same,Mean diameter of nanosize droplets,[4]; [21],40.3 nm
same,Mode (peak) of nanosize droplets,[4]; [21],33.4 nm
same,Mode of droplets in the micrometer range,[4]; [21],4.0 μm
same,Total number of droplets in micrometer range (0.5-20 μm),[4]; [21],4390 #/cc
same,Total number of droplets in the nanosize range,[4]; [21],"84,000 #/cc"
same,Reduction of Salmonella,[5],4.2 log CFU/leaf
